In experiment [1] the target is α, receptor. Put plainly: binding α receptor.
The test system of experiment [2] is isolated aorta contraction induced by phenylephrine. The experiment can be described thus: inhibition of isolated aorta contraction induced by phenylephrine.
Experiment [3] has as its system acetylcholine induced bronchoconstriction. The experiment can be described thus: inhibition of acetylcholine induced bronchoconstriction, Konzett and Rossler method (Table B). It counts as in vivo, Male Hartley Guinea Pigs. As to conditions: IV; for inhibition in vivo at 4.6 µmol/kg / inhibition in vivo at 1.6 µmol/kg / inhibition in vivo at 0.13 µmol/kg / inhibition in vivo at 0.42 µmol/kg: Cavia porcellus. The procedure:
Male Hartley Guinea Pigs (450-500 g) were anaesthetised with ethyl carbamate and prepared for recording bronchoconstriction according to Konzett and Rossler method (Naunym Schmiedebergers Arch. Exp. Path. Pharmakol (1940) 195, 71). To abolish spontaneous respiration, an injection IV of vecuronium bromide (2 mg/kg) was made. Bronchoconstriction was induced by IV injection of Acetylcholine and the animals received one dose of β agonist compound (IV) 5 minutes later.

Experiment [4] concerns the target β adrenoceptors. The experiment can be described thus: radioligand binding studies in lung membrane (Table A, binding affinity). From the text: The results are summarised in Table A. Generally, the activity is better for the trans than the cis isomer.
Where [5] appears, read: 5 min, 1.6 μmol/kg, 5 mn, read-out: bronchoconstriction protection, score 5 mn.
Where [6] appears, read: 0.25 h, 1.6 μmol/kg, 15 mn, read-out: bronchoconstriction protection, score 15 mn.
Where [7] appears, read: 0.5 h, 1.6 μmol/kg, 30 mn, read-out: bronchoconstriction protection, score 30 mn.

Like-named read-outs stand apart in the source and are kept apart here.

This is an account of results in patent publication US5447942A, “N-derivatives of (phenylethyl-β-ol) amine, a process for their preparation and pharamaceutical compositions containing the same” (Societe de Conseils de Recherches et d'Applications …, priority 1992, dated 1995).

Turning to `COc1cc([C@H]2CC[C@@H](CNCC(O)c3ccc(O)c(CO)c3)O2)cc(OC)c1OC` (relative stereo) [Example 2 (cis), 2-(3',4',5'-trimethoxyphenyl)-5-[N-[β-(3'-hydroxymethyl-4'-hydroxy-phenyl)-β-hydroxy-ethyl]-aminomethyl]-tetrahydrofuran], the Ki (in general, a dissociation constant, usually derived from enzyme kinetics or from competition with a known ligand) was determined as 61 nM in experiment [1] and 410 nM in experiment [4]. Moreover, in experiment [2], the “pA2, inhibitor of isolated aorta contraction induced by phenylephrine” value came out at 7.75. The “bronchoconstriction protection, duration of action” value (from here on “bronchoconstriction protection”) in experiment [3] (4.6 μmol/kg) is given as 5 mn. The inhibition in vivo at 4.6 µmol/kg was 20 to 50% in experiment [3] (5 min, 4.6 μmol/kg, 5 mn, read-out: bronchoconstriction protection, score 5 mn); less than 20% in experiment [3] (0.25 h, 4.6 μmol/kg, 15 mn, read-out: bronchoconstriction protection, score 15 mn); less than 20% in experiment [3] (0.5 h, 4.6 μmol/kg, 30 mn, read-out: bronchoconstriction protection, score 30 mn).
Turning to `OCc1cc(C(O)CNCCCC2CCC(c3ccccc3Cl)O2)ccc1O` (stereo not drawn) [Example 16, 2-(2'-chlorophenyl)-5-[N-[β-(3'-hydroxymethyl-4'-hydroxy-phenyl)-β-hydroxy-ethyl]-aminopropyl]-tetrahydrofuran], the “bronchoconstriction protection” value in experiment [3] (1.6 μmol/kg) was more than 15 mn. Also, the inhibition in vivo at 1.6 µmol/kg is 20 to 50% in experiment [3] (setting [5]), 20 to 50% in experiment [3] (setting [6]) and less than 20% in experiment [3] (setting [7]). The affinity in experiment [4], expressed as Ki, was 570 nM.
`COc1cc(C2CC(CNCC(O)c3ccc(O)c(CO)c3)CO2)cc(OC)c1OC` (centres unmarked) [Example 18]: in experiment [3] (1.6 μmol/kg), the “bronchoconstriction protection” value is 30 mn. The inhibition in vivo at 1.6 µmol/kg in experiment [3] (setting [5]) lay within 50 to 75%; in experiment [3] (setting [6]), 20 to 50%; in experiment [3] (setting [7]) it was 20 to 50%. Further, the inhibition constant (Ki) in experiment [4] was found to be 1600 nM.
Consider `CC(C)(C)NCC(O)c1ccc(O)c(CO)c1` (centres unmarked) [Salbutamol, reference compound], for which the “bronchoconstriction protection” value in experiment [3] (0.13 μmol/kg) is listed as 10 mn; in experiment [3] (0.42 μmol/kg) it was 30 mn. The inhibition in vivo at 0.13 µmol/kg in experiment [3] (5 min, 0.13 μmol/kg, 5 mn, read-out: bronchoconstriction protection, score 5 mn) is more than 75%; in experiment [3] (0.25 h, 0.13 μmol/kg, 15 mn, read-out: bronchoconstriction protection, score 15 mn), less than 20%; in experiment [3] (0.5 h, 0.13 μmol/kg, 30 mn, read-out: bronchoconstriction protection, score 30 mn) it was less than 20%. Besides, the inhibition in vivo at 0.42 µmol/kg in experiment [3] (5 min, 0.42 μmol/kg, 5 mn, read-out: bronchoconstriction protection, score 5 mn) was more than 75%; in experiment [3] (0.25 h, 0.42 μmol/kg, 15 mn, read-out: bronchoconstriction protection, score 15 mn), more than 75%; in experiment [3] (0.5 h, 0.42 μmol/kg, 30 mn, read-out: bronchoconstriction protection, score 30 mn), less than 20%. Also, the affinity in experiment [4], expressed as Ki, was 2500 nM.
